# PMC12028158, “Synthesis and In Vitro Evaluation of the Anticancer Effect of Novel Phosphonium Vindoline Derivatives” (International Journal of Molecular Sciences, 2025)
# Where two headings read alike, the source gives them in different places.
# What was measured:
# Type in all cases: cell-based
# SK-OV-3 = test: NCI60 five-dose screen; settings: Homo sapiens, SK-OV-3
# IGROV1 [1] = test: NCI60 one-dose screen; settings: Homo sapiens, IGROV-1, read-out: Growth percent
# CNS Cancer panel = test: NCI60 five-dose screen, panel mean; settings: Homo sapiens
# NCI-H522 [2] = test: NCI60 five-dose screen; settings: Homo sapiens, NCI-H522
# Renal Cancer panel = test: NCI60 five-dose screen, panel mean; settings: Homo sapiens
# SK-MEL-28 = test: NCI60 one-dose screen; settings: Homo sapiens, SK-MEL-28, read-out: Growth percent
# OVCAR-4 [3] = test: NCI60 five-dose screen; settings: Homo sapiens, OVCAR-4
# HCT-116 [4] = test: NCI60 five-dose screen; settings: Homo sapiens, HCT-116
# NCI-H322M = test: NCI60 one-dose screen; settings: Homo sapiens, read-out: Growth percent
# Breast Cancer panel = test: NCI60 five-dose screen, panel mean; settings: Homo sapiens
# ACHN [5] = test: NCI60 five-dose screen; settings: Homo sapiens
# Colon Cancer panel = test: NCI60 five-dose screen, panel mean; settings: Homo sapiens
# M14 = test: NCI60 one-dose screen; settings: Homo sapiens, M14, read-out: Growth percent
# T-47D = test: NCI60 five-dose screen; settings: Homo sapiens, T47D
# EKVX = test: NCI60 one-dose screen; settings: Homo sapiens, read-out: Growth percent
# LOX IMVI = test: NCI60 five-dose screen; settings: Homo sapiens
# OVCAR-3 = test: NCI60 one-dose screen; settings: Homo sapiens, OVCAR-3, read-out: Growth percent
# HT29 = test: NCI60 five-dose screen; settings: Homo sapiens, HT-29
# HOP-62 = test: NCI60 five-dose screen; settings: Homo sapiens, HOP-62
# HCT-15 [6] = test: NCI60 one-dose screen; settings: Homo sapiens, HCT-15, read-out: Growth percent
# OVCAR-5 = test: NCI60 one-dose screen; settings: Homo sapiens, OVCAR-5, read-out: Growth percent
# MALME-3M = test: NCI60 five-dose screen; settings: Homo sapiens, Malme-3M
# CCRF-CEM = test: NCI60 five-dose screen; settings: Homo sapiens
# Ovarian Cancer panel = test: NCI60 five-dose screen, panel mean; settings: Homo sapiens
# OVCAR-4 [7] = test: NCI60 one-dose screen; settings: Homo sapiens, OVCAR-4, read-out: Growth percent
# SK-MEL-5 = test: NCI60 five-dose screen; settings: Homo sapiens, SK-MEL-5
# OVCAR-8 = test: NCI60 one-dose screen; settings: Homo sapiens, OVCAR-8, read-out: Growth percent
# SF-295 = test: NCI60 one-dose screen; settings: Homo sapiens, SF-295, read-out: Growth percent
# RXF 393 = test: NCI60 one-dose screen; settings: Homo sapiens, RXF 393, read-out: Growth percent
# HCT-116 [8] = test: NCI60 one-dose screen; settings: Homo sapiens, HCT-116, read-out: Growth percent
# HL-60(TB) = test: NCI60 one-dose screen; settings: Homo sapiens, HL-60, read-out: Growth percent
# MDA-MB-435 = test: NCI60 five-dose screen; settings: Homo sapiens, MDA-MB-435
# HCT-15 [9] = test: NCI60 five-dose screen; settings: Homo sapiens, HCT-15
# SW-620 = test: NCI60 five-dose screen; settings: Homo sapiens, SW-620
# DU-145 = test: NCI60 one-dose screen; settings: Homo sapiens, DU-145, read-out: Growth percent
# HCC-2998 = test: NCI60 one-dose screen; settings: Homo sapiens, HCC 2998, read-out: Growth percent
# [10] = tested on: 60 human tumor cell lines (NCI60); test: NCI60 one-dose screen, overall mean; settings: for activity at 10 µM: Homo sapiens, 60 cell, read-out: Mean growth percent
# Leukemia panel = test: NCI60 five-dose screen, panel mean; settings: Homo sapiens
# IGROV1 [11] = test: NCI60 five-dose screen; settings: Homo sapiens, IGROV-1
# UACC-62 = test: NCI60 five-dose screen; settings: Homo sapiens, UACC-62
# CAKI-1 = test: NCI60 one-dose screen; settings: Homo sapiens, CAKI-1, read-out: Growth percent
# MOLT-4 = test: NCI60 five-dose screen; settings: Homo sapiens, MOLT-4
# NCI-H522 [12] = test: NCI60 one-dose screen; settings: Homo sapiens, NCI-H522, read-out: Growth percent
# BT-549 = test: NCI60 one-dose screen; settings: Homo sapiens, BT-549, read-out: Growth percent
# ACHN [13] = test: NCI60 one-dose screen; settings: Homo sapiens, read-out: Growth percent
# NCI-H23 = test: NCI60 one-dose screen; settings: Homo sapiens, NCI-H23, read-out: Growth percent
# NCI/ADR-RES = test: NCI60 one-dose screen; settings: Homo sapiens, read-out: Growth percent
structure (smiles),measurement,setting,value
CC[C@]12C=CCN3CC[C@@]4(c5ccc(OC)cc5N(C)[C@H]4[C@@](O)(C(=O)OC)[C@@H]1OC(=O)CCC[P+](C1CCCCC1)(C1CCCCC1)C1CCCCC1)[C@@H]32 [9d],GI50,SK-OV-3,2590 nM
same,activity at 10 µM,IGROV1 [1],-86%
same,GI50,CNS Cancer panel; read-out: Mean GI50,2710 nM
same,GI50,NCI-H522 [2],6880 nM
same,GI50,Renal Cancer panel; read-out: Mean GI50,7930 nM
same,activity at 10 µM,SK-MEL-28,-85.9%
same,GI50,OVCAR-4 [3],2390 nM
same,GI50,HCT-116 [4],2850 nM
same,activity at 10 µM,NCI-H322M,24.5%
same,GI50,Breast Cancer panel; read-out: Mean GI50,1540 nM
same,GI50,ACHN [5],15200 nM
same,GI50,Colon Cancer panel; read-out: Mean GI50,3820 nM
same,activity at 10 µM,M14,-78%
same,GI50,T-47D,1320 nM
same,activity at 10 µM,EKVX,15.4%
same,GI50,LOX IMVI,2880 nM
same,activity at 10 µM,OVCAR-3,-48.6%
same,GI50,HT29,1880 nM
same,GI50,HOP-62,3680 nM
same,activity at 10 µM,HCT-15 [6],76.6%
same,activity at 10 µM,OVCAR-5,11%
same,GI50,MALME-3M,1460 nM
same,GI50,CCRF-CEM,1690 nM
same,GI50,Ovarian Cancer panel; read-out: Mean GI50,7120 nM
same,activity at 10 µM,OVCAR-4 [7],17.7%
same,GI50,SK-MEL-5,1760 nM
same,activity at 10 µM,OVCAR-8,1.19%
same,activity at 10 µM,SF-295,-13.6%
same,activity at 10 µM,RXF 393,-70.3%
same,activity at 10 µM,HCT-116 [8],0.16%
same,activity at 10 µM,HL-60(TB),-37.1%
same,GI50,MDA-MB-435,1830 nM
same,GI50,HCT-15 [9],15300 nM
same,GI50,SW-620,2950 nM
same,activity at 10 µM,DU-145,15.7%
same,activity at 10 µM,HCC-2998,-92.6%
same,activity at 10 µM,[10],-32.7%
same,GI50,Leukemia panel; read-out: Mean GI50,1200 nM
same,GI50,IGROV1 [11],1390 nM
same,GI50,UACC-62,1410 nM
same,activity at 10 µM,CAKI-1,-8.49%
same,GI50,MOLT-4,2160 nM
same,activity at 10 µM,NCI-H522 [12],-82.2%
same,activity at 10 µM,BT-549,-97.4%
same,activity at 10 µM,ACHN [13],32%
same,activity at 10 µM,NCI-H23,-4.73%
same,activity at 10 µM,NCI/ADR-RES,100%
CC[C@]12C=CCN3CC[C@@]4(c5ccc(OC)cc5N(C)[C@H]4[C@@](O)(C(=O)OC)[C@@H]1OC(=O)CCC[P+](c1ccccc1)(c1ccccc1)c1ccccc1OC)[C@@H]32 [9f],GI50,SK-OV-3,411 nM
same,activity at 10 µM,IGROV1 [1],-43.2%
same,GI50,CNS Cancer panel; read-out: Mean GI50,570 nM
same,GI50,NCI-H522 [2],339 nM
same,GI50,Renal Cancer panel; read-out: Mean GI50,3080 nM
same,activity at 10 µM,SK-MEL-28,-63.3%
same,GI50,OVCAR-4 [3],540 nM
same,GI50,HCT-116 [4],383 nM
same,activity at 10 µM,NCI-H322M,25.9%
same,GI50,Breast Cancer panel; read-out: Mean GI50,310 nM
same,GI50,ACHN [5],4580 nM
same,GI50,Colon Cancer panel; read-out: Mean GI50,1610 nM
same,activity at 10 µM,M14,-82.9%
same,GI50,T-47D,302 nM
same,activity at 10 µM,EKVX,-8.21%
same,GI50,LOX IMVI,429 nM
same,activity at 10 µM,OVCAR-3,-75%
same,GI50,HT29,356 nM
same,GI50,HOP-62,2160 nM
same,activity at 10 µM,HCT-15 [6],30.7%
same,activity at 10 µM,OVCAR-5,10.6%
same,GI50,MALME-3M,295 nM
same,GI50,CCRF-CEM,256 nM
same,GI50,Ovarian Cancer panel; read-out: Mean GI50,4200 nM
same,activity at 10 µM,OVCAR-4 [7],-11.1%
same,GI50,SK-MEL-5,777 nM
same,activity at 10 µM,OVCAR-8,6.9%
same,activity at 10 µM,SF-295,-42.3%
same,activity at 10 µM,RXF 393,-83.6%
same,activity at 10 µM,HCT-116 [8],-51%
same,activity at 10 µM,HL-60(TB),-5.95%
same,GI50,MDA-MB-435,299 nM
same,GI50,HCT-15 [9],9070 nM
same,GI50,SW-620,637 nM
same,activity at 10 µM,DU-145,1.94%
same,activity at 10 µM,HCC-2998,-93.1%
same,activity at 10 µM,[10],-45.4%
same,GI50,Leukemia panel; read-out: Mean GI50,220 nM
same,GI50,IGROV1 [11],510 nM
same,GI50,UACC-62,286 nM
same,activity at 10 µM,CAKI-1,-40.2%
same,GI50,MOLT-4,419 nM
same,activity at 10 µM,NCI-H522 [12],-70.4%
same,activity at 10 µM,BT-549,-64.2%
same,activity at 10 µM,ACHN [13],0.6%
same,activity at 10 µM,NCI-H23,-57.8%
same,activity at 10 µM,NCI/ADR-RES,75.9%
CC[C@]12C=CCN3CC[C@@]4(c5ccc(OC)cc5N(C)[C@H]4[C@@](O)(C(=O)OC)[C@@H]1OC(=O)CCCC[P+](c1ccc(C)cc1)(c1ccc(C)cc1)c1ccc(C)cc1)[C@@H]32 [10a],GI50,SK-OV-3,1040 nM
same,activity at 10 µM,IGROV1 [1],-91.8%
same,GI50,CNS Cancer panel; read-out: GI50 Mean,1090 nM
same,GI50,NCI-H522 [2],306 nM
same,GI50,Renal Cancer panel; read-out: GI50 Mean,2340 nM
same,activity at 10 µM,SK-MEL-28,-97.8%
same,GI50,OVCAR-4 [3],1090 nM
same,GI50,HCT-116 [4],452 nM
same,activity at 10 µM,NCI-H322M,-97.6%
same,GI50,Breast Cancer panel; read-out: GI50 Mean,580 nM
same,GI50,ACHN [5],2540 nM
same,GI50,Colon Cancer panel; read-out: GI50 Mean,720 nM
same,activity at 10 µM,M14,-88.3%
same,GI50,T-47D,370 nM
same,activity at 10 µM,EKVX,-93.8%
same,GI50,LOX IMVI,797 nM
same,activity at 10 µM,OVCAR-3,-77.1%
same,GI50,HT29,358 nM
same,GI50,HOP-62,1370 nM
same,activity at 10 µM,HCT-15 [6],-90.1%
same,activity at 10 µM,OVCAR-5,-96%
same,GI50,MALME-3M,1170 nM
same,GI50,CCRF-CEM,768 nM
same,GI50,Ovarian Cancer panel; read-out: GI50 Mean,2540 nM
same,activity at 10 µM,OVCAR-4 [7],-68.9%
same,GI50,SK-MEL-5,1570 nM
same,activity at 10 µM,OVCAR-8,-86.6%
same,activity at 10 µM,SF-295,-91.8%
same,activity at 10 µM,RXF 393,-87.6%
same,activity at 10 µM,HCT-116 [8],-93.5%
same,activity at 10 µM,HL-60(TB),-42.2%
same,GI50,MDA-MB-435,678 nM
same,GI50,HCT-15 [9],2170 nM
same,GI50,SW-620,761 nM
same,activity at 10 µM,DU-145,-84.5%
same,activity at 10 µM,HCC-2998,-85.8%
same,activity at 10 µM,[10],-78.7%
same,average reduction / average cell death,"[10]; one-dose, 10 µM, average over cell lines",more than 70%
same,GI50,Leukemia panel; read-out: GI50 Mean,480 nM
same,GI50,IGROV1 [11],479 nM
same,GI50,UACC-62,705 nM
same,activity at 10 µM,CAKI-1,-95.2%
same,GI50,MOLT-4,611 nM
same,activity at 10 µM,NCI-H522 [12],-82.7%
same,activity at 10 µM,BT-549,-97%
same,activity at 10 µM,ACHN [13],-99.3%
same,activity at 10 µM,NCI-H23,-92.4%
same,activity at 10 µM,NCI/ADR-RES,71.8%
